Values of other authors in PMC4584145 (Antiviral chemistry & chemotherapy, 2011).

What was measured:
N-HR of HIV-1 gp41 = conditions: ELISA; N-HR containing amino acid positions 18 to 73
[1] = test system: 5-helix complex (three N-HRs and two C-HRs)

## C34: representative C-HR-derived peptide that inhibits HIV-1 fusion to host cells
N-HR of HIV-1 gp41
  binding to the N-HR: binds strongly

## Enfuvirtide [T20]
N-HR of HIV-1 gp41
  binding to the N-HR: binds weakly
[1]
  interaction with artificial 5-helix complex: much weaker than that between C34 and the complex
